Each structure is given as a SMILES string.

In this test the target is TRKA (Homo sapiens (Human), UniProt P04629). The experiment in a line: Isolated TRK enzyme assay (HTRF KinEASE-TK), TRKA. The class given is biochemical. Conditions: read-out: Trka enzyme (IC50). (TR-FRET usually uses a lanthanide donor and a delayed reading to cut background.)
TRKA, sequence (P04629 441-796): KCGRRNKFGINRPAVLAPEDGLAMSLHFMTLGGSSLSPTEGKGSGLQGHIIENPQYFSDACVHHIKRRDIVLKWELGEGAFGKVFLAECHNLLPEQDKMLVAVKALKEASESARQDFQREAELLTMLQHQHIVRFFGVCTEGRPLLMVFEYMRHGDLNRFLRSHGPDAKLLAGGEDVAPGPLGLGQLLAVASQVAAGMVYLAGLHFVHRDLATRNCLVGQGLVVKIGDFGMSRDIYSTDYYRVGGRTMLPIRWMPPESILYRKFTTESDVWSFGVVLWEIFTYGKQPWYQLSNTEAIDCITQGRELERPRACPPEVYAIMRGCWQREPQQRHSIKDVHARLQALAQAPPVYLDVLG
Usually IC50 stands for the concentration needed to halve the response being measured. For the compound `CC(C)n1cc(C(=O)c2cncc(NC(=O)c3cc4ncccn4n3)c2)c2cncnc21` [Example 428, Pyrazolo[1,5-a]pyrimidine-2-carboxylic acid [5-(7-isopropyl-7H-pyrrolo[2,3-d]pyrimidine-5-carbonyl)-pyridin-3-yl]amide], the IC50 came out at 960 nM. Take `CC(C)n1cc(C(=O)c2cncc(NC(=O)c3ccccn3)c2)c2cncnc21` [Example 429, Pyridine-2-carboxylic acid [5-(7-isopropyl-7H-pyrrolo[2,3-d]pyrimidine-5-carbonyl)-pyridin-3-yl]-amide]: the half-inhibitory concentration (IC50) was found to be 2740 nM. Next, `CC(C)n1cc(C(=O)c2cncc(NC(=O)c3cncc(Cl)c3)c2)c2cncnc21` [Example 430, 5-Chloro-N-[5-(7-isopropyl-7H-pyrrolo[2,3-d]pyrimidine-5-carbonyl)-pyridin-3-yl]-nicotinamide]: 297 nM. As to `CC(C)n1cc(C(=O)c2cncc(NC(=O)c3cc4occc4[nH]3)c2)c2cncnc21` [Example 431, 4H-Furo[3,2-b]pyrrole-5-carboxylic acid [5-(7-isopropyl-7H-pyrrolo1[2,3-d]pyrimidine-5-carbonyl)-pyridin-3-yl]-amide], the IC50 was 235 nM. Turning to `CC(C)n1cc(C(=O)c2cncc(NC(=O)c3ccn4ccnc4c3)c2)c2cncnc21` [Example 432, Imidazo[1,2-a]pyridine-7-carboxylicacid [5-(7-isopropyl-7H-pyrrolo[2,3-d]pyrimidine-5-carbonyl)-pyridin-3-yl]amide], the IC50 was determined as 2790 nM. On to `CCn1cc(C(=O)Nc2cncc(C(=O)c3cn(C(C)C)c4ncncc34)c2)cn1` [Example 433, 1-Ethyl-1H-pyrazole-4-carboxylic acid [5-(7-isopropyl-7H-pyrrolo[2,3-d]pyrimidine-5-carbonyl)-pyridin-3-yl]-amide], for which the IC50 is 246 nM. On to `CC(C)n1cnc(C(=O)Nc2cncc(C(=O)c3cn(C(C)C)c4ncncc34)c2)c1` [Example 434, 1-Isopropyl-1H-imidazole-4-carboxylic acid [5-(7-isopropyl-7H-pyrrolo[2,3-d]pyrimidine-5-carbonyl)-pyridin-3-yl]-amide], for which the IC50 is 99.9 nM. Take `COc1nc(C(=O)Nc2cncc(C(=O)c3cn(C(C)C)c4ncncc34)c2)cn2ccnc12` [Example 435, 8-Methoxy-imidazo[1,2-a]pyrazine-6-carboxylic acid [5-(7-isopropyl-7H-pyrrolo[2,3-d]pyrimidine-5-carbonyl)-pyridin-3-yl]amide]: the half-maximal inhibitory concentration (IC50) is 5490 nM. Regarding `CC(C)n1cc(C(=O)c2cncc(NC(=O)c3cnc4[nH]ccc4c3)c2)c2cncnc21` [Example 436, 1H-Pyrrolo[2,3-b]pyridine-5-carboxylic acid [5-(7-isopropyl-7H-pyrrolo[2,3-d]pyrimidine-5-carbonyl)-pyridin-3-yl]amide], the half-maximal inhibitory concentration (IC50) worked out at 205 nM.

`CCCc1cc(C(=O)Nc2cncc(C(=O)c3cn(C(C)C)c4ncncc34)c2)n(C)n1` [Example 437, 2-Methyl-5-propyl-2H-pyrazole-3-carboxylic acid [5-(7-isopropyl-7H-pyrrolo[2,3-d]pyrimidine-5-carbonyl)-pyridin-3-yl]amide]: the concentration for half-maximal inhibition (IC50) came out at 107 nM. Consider `CC(C)c1csc(C(=O)Nc2cncc(C(=O)c3cn(C(C)C)c4ncncc34)c2)n1` [Example 438, 4-Isopropyl-thiazole-2-carboxylic acid [5-(7-isopropyl-7H-pyrrolo[2,3-d]pyrimidine-5-carbonyl)-pyridin-3-yl]-amide], for which the IC50 was found to be 31.2 nM. Take `Cc1coc2cnc(C(=O)Nc3cncc(C(=O)c4cn(C(C)C)c5ncncc45)c3)cc12` [Example 439, 3-Methyl-furo[2,3-c]pyridine-5-carboxylic acid [5-(7-isopropyl-7H-pyrrolo[2,3-d]pyrimidine-5-carbonyl)-pyridin-3-yl]-amide]: the IC50 was 22.5 nM.

As for `Cc1cccc(C(=O)Nc2cncc(C(=O)c3cn(C(C)C)c4ncncc34)c2)n1` [Example 440, 6-Methyl-pyridine-2-carboxylic acid[5-(7-isopropyl-7H-pyrrolo[2,3-d]pyrimidine-5-carbonyl)-pyridin-3-yl]-amide], the IC50 is 676 nM. In the case of `CC(C)n1cc(C(=O)c2cncc(NC(=O)c3c(C(F)(F)F)nn(C)c3Cl)c2)c2cncnc21` [Example 441, 5-Chloro-1-methyl-3-trifluoromethyl-1H-pyrazole-4-carboxylic acid [5-(7-isopropyl-7H-pyrrolo[2,3-d]pyrimidine-5-carbonyl)-pyridin-3-yl]-amide], the IC50 was 8390 nM. `COc1ccc2[nH]c(C(=O)Nc3cncc(C(=O)c4cn(C(C)C)c5ncncc45)c3)nc2c1` [Example 442, 5-Methoxy-1H-benzimidazole-2-carboxylic acid [5-(7-isopropyl-7H-pyrrolo[2,3-d]pyrimidine-5-carbonyl)-pyridin-3-yl]amide]: the IC50 was found to be 36.6 nM. Take `Cc1c(Cl)c(C(=O)Nc2cncc(C(=O)c3cn(C(C)C)c4ncncc34)c2)nn1C` [Example 443, 4-Chloro-1,5-dimethyl-1H-pyrazole-3-carboxylic acid [5-(7-isopropyl-7H-pyrrolo[2,3-d]pyrimidine-5-carbonyl)-pyridin-3-yl]amide]: the IC50 came out at 47.7 nM. On to `CC(C)n1cc(C(=O)c2cncc(NC(=O)c3nccc4[nH]ccc34)c2)c2cncnc21` [Example 444, 1H-Pyrrolo[3,2-c]pyridine-4-carboxylic acid [5-(7-isopropyl-7H-pyrrolo[2,3-d]pyrimidine-5-carbonyl)-pyridin-3-yl]amide], for which the IC50 worked out at 496 nM. Turning to `CCc1ccnc(C(=O)Nc2cncc(C(=O)c3cn(C(C)C)c4ncncc34)c2)c1` [Example 445, 4-Ethyl-pyridine-2-carboxylic acid [5-(7-isopropyl-7H-pyrrolo[2,3-d]pyrimidine-5-carbonyl)-pyridin-3-yl]-amide], the IC50 was found to be 5.51 nM.

As to `CC(C)n1cc(C(=O)c2cncc(NC(=O)c3cnc4c(c3)OCCO4)c2)c2cncnc21` [Example 446, 2,3-Dihydro-1,4-dioxino[2,3-b]pyridine-7-carboxylic acid [5-(7-isopropyl-7H-pyrrolo[2,3-d]pyrimidine-5-carbonyl)-pyridin-3-yl]-amide], the half-inhibitory concentration (IC50) is 812 nM. Consider `CC(C)n1cc(C(=O)c2cncc(NC(=O)c3ccc4[nH]ccc4n3)c2)c2cncnc21` [Example 447, 1H-Pyrrolo[3,2-b]pyridine-5-carboxylic acid [5-(7-isopropyl-7H-pyrrolo[2,3-d]pyrimidine-5-carbonyl)-pyridin-3-yl]amide], for which the half-maximal inhibitory concentration (IC50) was 919 nM. Take `CC(C)n1cc(C(=O)c2cncc(NC(=O)c3ccn4nccc4c3)c2)c2cncnc21` [Example 448, Pyrazolo[1,5-a]pyridine-5-carboxylic acid [5-(7-isopropyl-7H-pyrrolo[2,3-d]pyrimidine-5-carbonyl)-pyridin-3-yl]-amide]: the IC50 was 272 nM. Regarding `COc1ccc2ncc(C(=O)Nc3cncc(C(=O)c4cn(C(C)C)c5ncncc45)c3)cc2c1` [Example 449, 6-Methoxy-quinoline-3-carboxylic acid [5-(7-isopropyl-7H-pyrrolo[2,3-d]pyrimidine-5-carbonyl)-pyridin-3-yl]-amide], the IC50 worked out at 155 nM. Consider `Cc1cc(C(=O)Nc2cncc(C(=O)c3cn(C(C)C)c4ncncc34)c2)n(CC(F)(F)F)n1` [Example 450, 5-Methyl-2-(2,2,2-trifluoro-ethyl)-2H-pyrazole-3-carboxylic acid [5-(7-isopropyl-7H-pyrrolo[2,3-d]pyrimidine-5-carbonyl)-pyridin-3-yl]-amide], for which the half-inhibitory concentration (IC50) was 3150 nM. As for `CC(C)n1cc(C(=O)c2cncc(NC(=O)c3cnccc3C(F)(F)F)c2)c2cncnc21` [Example 451, N-[5-(7-Isopropyl-7H-pyrrolo[2,3-d]pyrimidine-5-carbonyl)-pyridin-3-yl]-4-trifluoromethyl-nicotinamide], the IC50 worked out at 7170 nM. Take `CC(C)n1cc(C(=O)c2cncc(NC(=O)c3cnn(CCC#N)c3)c2)c2cncnc21` [Example 452, 1-(2-Cyano-ethyl)-1H-pyrazole-4-carboxylic acid [5-(7-isopropyl-7H-pyrrolo[2,3-d]pyrimidine-5-carbonyl)-pyridin-3-yl]amide]: the IC50 was 542 nM.

For `CC(C)n1cc(C(=O)c2cncc(NC(=O)c3cc4cnccc4o3)c2)c2cncnc21` [Example 453, Furo[3,2-c]pyridine-2-carboxylic acid [5-(7-isopropyl-7H-pyrrolo[2,3-d]pyrimidine-5-carbonyl)-pyridin-3-yl]-amide], the half-inhibitory concentration (IC50) worked out at 634 nM. For the compound `CC(C)n1cc(C(=O)c2cncc(NC(=O)c3cc4cnccc4[nH]3)c2)c2cncnc21` [Example 454, 1H-Pyrrolo[3,2-c]pyridine-2-carboxylic acid [5-(7-isopropyl-7H-pyrrolo[2,3-d]pyrimidine-5-carbonyl)-pyridin-3-yl]-amide], the IC50 was 633 nM. Next, `CC(C)n1cc(C(=O)c2cncc(NC(=O)c3cc4occc4cn3)c2)c2cncnc21` [Example 455, Furo[3,2-c]pyridine-6-carboxylic acid [5-(7-isopropyl-7H-pyrrolo[2,3-d]pyrimidine-5-carbonyl)-pyridin-3-yl]-amide]: 1070 nM. Turning to `Cc1nc(C)c(C(=O)Nc2cncc(C(=O)c3cn(C(C)C)c4ncncc34)c2)o1` [Example 456, 2,4-Dimethyl-oxazole-5-carboxylic acid [5-(7-isopropyl-7H-pyrrolo[2,3-d]pyrimidine-5-carbonyl)-pyridin-3-yl]-amide], the IC50 worked out at 6960 nM. The figure for `CC(C)n1cc(C(=O)c2cncc(NC(=O)c3cn(C)c4cnccc34)c2)c2cncnc21` [Example 457, 1-Methyl-1H-pyrrolo[2,3-c]pyridine-3-carboxylic acid [5-(7-isopropyl-7H-pyrrolo[2,3-d]pyrimidine-5-carbonyl)-pyridin-3-yl]-amide] is 674 nM; for `CC(C)n1cc(C(=O)c2cncc(NC(=O)c3cc4n(n3)CCC4)c2)c2cncnc21` [Example 458, 5,6-Dihydro-4H-pyrrolo[1,2-b]pyrazole-2-carboxylic acid [5-(7-isopropyl-7H-pyrrolo[2,3-d]pyrimidine-5-carbonyl)-pyridin-3-yl]-amide] it is 213 nM.

For the origin of these results see patent publication US8846698B2, “Pyrrolo[2,3-d]pyrimidine tropomysin-related kinase inhibitors” (Pfizer Limited, priority 2011, dated 2014).
